The IC50 is the concentration that gives 50% inhibition.

25 compounds from patent US9487483B2, “Complement pathway modulators and uses thereof” (priority 2012, dated 2016) can be followed below.

Recombinant human factor D, sequence (P00746 26-253): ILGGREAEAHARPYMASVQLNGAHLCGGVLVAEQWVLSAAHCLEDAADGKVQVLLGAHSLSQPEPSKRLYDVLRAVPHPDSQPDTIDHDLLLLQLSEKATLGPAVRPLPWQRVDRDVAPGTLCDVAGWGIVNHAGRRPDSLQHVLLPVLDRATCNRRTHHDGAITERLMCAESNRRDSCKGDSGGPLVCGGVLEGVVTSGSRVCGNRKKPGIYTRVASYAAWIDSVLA

The first test addresses Recombinant human factor D (Homo sapiens (Human), UniProt P00746). The test can be described thus: biochemical. It counts as biochemical. The conditions noted are these: Factor D inhibition data using Method 1; substrate Z-Lys-thiobenzyl, fluorescence readout; read-out: IC50.
Procedure: Human Complement Factor D Assay: Method 1
Recombinant human factor D (expressed in E. coli and purified using standard methods) at 10 nM concentration is incubated with test compound at various concentrations for 1 hour at room temperature in 0.1 M Hepes buffer, pH 7.5, containing 1 mM MgCl2, 1 M NaCl and 0.05% CHAPS. […] IC50 values are calculated from percentage of inhibition of complement factor D-activity as a function of test compound concentration.
Regarding `CO[C@H]1CCC[C@@H](NC(=O)[C@@H]2C[C@H]3C[C@H]3N2C(=O)Cn2nc(C(N)=O)c3ccccc32)C1` [Example 46, 1-{2-[(1R,3S,5R)-3-((1R,3S)-3-Methoxy-cyclohexylcarbamoyl)-2-aza-bicyclo[3.1.0]hex-2-yl]-2-oxo-ethyl}-1H-indazole-3-carboxylic acid amide], the IC50 stood at 478 nM. On the same count and under the same terms, next, `NC(=O)c1nn(CC(=O)N2[C@@H]3C[C@@H]3C[C@H]2C(=O)N[C@@H]2CCC[C@H](C(F)(F)F)C2)c2ccccc12` [Example 49, 1-{2-Oxo-2-[(1R,3S,5R)-3-((1R,3S)-3-trifluoromethyl-cyclohexylcarbamoyl)-2-aza-bicyclo[3.1.0]hex-2-yl]ethyl}-1H-indazole-3-carboxylic acid amide]: 29 nM. As to `Cc1cc2c(C(N)=O)nn(CC(=O)N3[C@@H]4C[C@@H]4C[C@H]3C(=O)N[C@@H]3CCC[C@H](C(F)(F)F)C3)c2cn1` [Example 50, 5-Methyl-1-{2-oxo-2-[(1R,3S,5R)-3-((1R,3S)-3-trifluoromethyl-cyclohexylcarbamoyl)-2-aza-bicyclo[3.1.0]hex-2-yl]ethyl}-1H-pyrazolo[3,4-c]pyridine-3-carboxylic acid amide], the half-inhibitory concentration (IC50) worked out at 118 nM. Turning to `C[C@H]1CCC[C@@H](NC(=O)[C@@H]2C[C@H]3C[C@H]3N2C(=O)Cn2nc(C(N)=O)c3ccncc32)C1` [Example 51, 1-{2-[(1R,3S,5R)-3-((1R,3S)-3-Methyl-cyclohexylcarbamoyl)-2-aza-bicyclo[3.1.0]hex-2-yl]-2-oxo-ethyl}-1H-pyrazolo[3,4-c]pyridine-3-carboxylic acid amide], the IC50 is 226 nM. On to `NC(=O)c1nn(CC(=O)N2[C@@H]3C[C@@H]3C[C@H]2C(=O)NC2CCC(F)(F)C2)c2ccccc12` (stereo partly drawn) [Example 52, 1-{2-[(1R,3S,5R)-3-(3,3-Difluoro-cyclopentylcarbamoyl)-2-aza-bicyclo[3.1.0]hex-2-yl]-2-oxo-ethyl}-1H-indazole-3-carboxylic acid amide], for which the 50% inhibitory concentration (IC50) was 999 nM.

For the compound `CC1(C)CCC[C@H](NC(=O)[C@@H]2C[C@H]3C[C@H]3N2C(=O)Cn2nc(C(N)=O)c3ccccc32)C1` [Example 53, 1-{2-[(1R,3S,5R)-3-((S)-3,3-Dimethyl-cyclohexylcarbamoyl)-2-aza-bicyclo[3.1.0]hex-2-yl]-2-oxo-ethyl}-1H-indazole-3-carboxylic acid amide], the IC50 came out at 905 nM.

Take `CC1(C)CCC[C@@H](NC(=O)[C@@H]2C[C@H]3C[C@H]3N2C(=O)Cn2nc(C(N)=O)c3ccccc32)C1` [Example 54, 1-{2-[(1R,3S,5R)-3-((R)-3,3-Dimethyl-cyclohexylcarbamoyl)-2-aza-bicyclo[3.1.0]hex-2-yl]-2-oxo-ethyl}-1H-indazole-3-carboxylic acid amide]: the IC50 amounted to 57 nM. For the compound `CC1(C)CCC[C@H](NC(=O)[C@@H]2C[C@H]3C[C@H]3N2C(=O)Cn2nc(C(N)=O)c3ccncc32)C1` [Example 55, 1-{2-[(1R,3S,5R)-3-((S)-3,3-Dimethyl-cyclohexylcarbamoyl)-2-aza-bicyclo[3.1.0]hex-2-yl]-2-oxo-ethyl}-1H-pyrazolo[3,4-c]pyridine-3-carboxylic acid amide], the IC50 was determined as 2210 nM. For `CC1(C)CCC[C@@H](NC(=O)[C@@H]2C[C@H]3C[C@H]3N2C(=O)Cn2nc(C(N)=O)c3ccncc32)C1` [Example 56, 1-{2-[(1R,3S,5R)-3-((R)-3,3-Dimethyl-cyclohexylcarbamoyl)-2-aza-bicyclo[3.1.0]hex-2-yl]-2-oxo-ethyl}-1H-pyrazolo[3,4-c]pyridine-3-carboxylic acid amide], the half-inhibitory concentration (IC50) is 37 nM. The same measure, in the same setting: the value for `Cc1ccc2c(c1)c(C(N)=O)nn2CC(=O)N1[C@@H]2C[C@@H]2C[C@H]1C(=O)N[C@@H]1CCCC(C)(C)C1` [Example 59, 1-{2-[(1R,3S,5R)-3-((R)-3,3-Dimethyl-cyclohexylcarbamoyl)-2-aza-bicyclo[3.1.0]hex-2-yl]-2-oxo-ethyl}-5-methyl-1H-indazole-3-carboxylic acid amide] was 43 nM. Turning to `CC1(C)CCC[C@@H](NC(=O)[C@@H]2C[C@H]3C[C@H]3N2C(=O)Cn2nc(C(N)=O)c3ccc(F)cc32)C1` [Example 60, 1-{2-[(1R,3S,5R)-3-((R)-3,3-Dimethyl-cyclohexylcarbamoyl)-2-aza-bicyclo[3.1.0]hex-2-yl]-2-oxo-ethyl}-6-fluoro-1H-indazole-3-carboxylic acid amide], the IC50 was 22 nM. For `CC1(C)CCC[C@@H](NC(=O)[C@@H]2C[C@H]3C[C@H]3N2C(=O)Cn2nc(C(N)=O)c3ccc(Cl)cc32)C1` [Example 62, 6-Chloro-1-{2-[(1R,3S,5R)-3-((R)-3,3-dimethyl-cyclohexylcarbamoyl)-2-aza-bicyclo[3.1.0]hex-2-yl]-2-oxo-ethyl}-1H-indazole-3-carboxylic acid amide], the concentration for half-maximal inhibition (IC50) is 24 nM. Take `Cc1cc2c(C(N)=O)nn(CC(=O)N3[C@@H]4C[C@@H]4C[C@H]3C(=O)N[C@@H]3CCCC(C)(C)C3)c2cn1` [Example 63, 1-{2-[(1R,3S,5R)-3-((R)-3,3-Dimethyl-cyclohexylcarbamoyl)-2-aza-bicyclo[3.1.0]hex-2-yl]-2-oxo-ethyl}-5-methyl-1H-pyrazolo[3,4-c] pyridine-3-carboxylic acid amide]: the IC50 turned out to be 49 nM. For the compound `CCc1cc2c(C(N)=O)nn(CC(=O)N3[C@@H]4C[C@@H]4C[C@H]3C(=O)N[C@@H]3CCCC(C)(C)C3)c2cn1` [Example 64, 1-{2-[(1R,3S,5R)-3-((R)-3,3-Dimethyl-cyclohexylcarbamoyl)-2-aza-bicyclo[3.1.0]hex-2-yl]-2-oxo-ethyl}-5-ethyl-1H-pyrazolo[3,4-c]pyridine-3-carboxylic acid amide], the 50% inhibitory concentration (IC50) stood at 24 nM. For `CC(=O)c1cn(CC(=O)N2[C@@H]3C[C@@H]3C[C@H]2C(=O)N[C@@H]2CCCC(C)(C)C2)c2nnccc12` [Example 66, (1R,3S,5R)-2-[2-(5-Acetyl-pyrrolo[2,3-c]pyridazin-7-yl)-acetyl]-2-aza-bicyclo[3.1.0] hexane-3-carboxylic acid ((R)-3,3-dimethyl-cyclohexyl)-amide], the IC50 is 1210 nM.

As for `CO[C@@H]1CCC[C@@H](NC(=O)[C@@H]2C[C@H]3C[C@H]3N2C(=O)Cn2nc(C(C)=O)c3cc(OCc4ncccn4)ccc32)C1` [Example 69, (1R,3S,5R)-2-{2-[3-Acetyl-5-(pyrimidin-2-ylmethoxy)-indazol-1-yl]-acetyl}-2-aza-bicyclo [3.1.0]hexane-3-carboxylic acid ((1R,3R)-3-methoxy-cyclohexyl)-amide], the concentration for half-maximal inhibition (IC50) came to 143 nM.

The same test, now with this note: read-out: IC50.
As for `NC(=O)c1nn(CC(=O)N2[C@@H]3C[C@@H]3C[C@H]2C(=O)N[C@@H]2CCC[C@H](C(F)(F)F)C2)c2cnccc12` [Example 41, 1-{2-Oxo-2-[(1R,3S,5R)-3-((1R,3S)-3-trifluoromethyl-cyclohexylcarbamoyl)-2-aza-bicyclo[3.1.0]hex-2-yl]-ethyl}-1H-pyrazolo[3,4-c]pyridine-3-carboxylic acid amide], the half-inhibitory concentration (IC50) was 114 nM. The same measure, in the same setting: the value for `CO[C@H]1CCC[C@H](NC(=O)[C@@H]2C[C@H]3C[C@H]3N2C(=O)Cn2nc(C(C)=O)c3ccccc32)C1` [Example 42, (1R,3S,5R)-2-[2-(3-Acetyl-indazol-1-yl)-acetyl]-2-aza-bicyclo[3.1.0]hexane-3-carboxylic acid ((1S,3S)-3-methoxy-cyclohexyl)-amide] was 1070 nM; that for `CO[C@@H]1CCC[C@@H](NC(=O)[C@@H]2C[C@H]3C[C@H]3N2C(=O)Cn2nc(C(C)=O)c3ccccc32)C1` [Example 43, (1R,3S,5R)-2-[2-(3-Acetyl-indazol-1-yl)-acetyl]-2-aza-bicyclo[3.1.0]hexane-3-carboxylic acid ((1R,3R)-3-methoxy-cyclohexyl)-amide] was 323 nM.

As for `CO[C@@H]1CCC[C@H](NC(=O)[C@@H]2C[C@H]3C[C@H]3N2C(=O)Cn2nc(C(C)=O)c3ccccc32)C1` [Example 44, (1R,3S,5R)-2-[2-(3-Acetyl-indazol-1-yl)-acetyl]-2-aza-bicyclo[3.1.0]hexane-3-carboxylic acid ((1S,3R)-3-methoxy-cyclohexyl)-amide], the half-inhibitory concentration (IC50) turned out to be 1880 nM. For `CO[C@H]1CCC[C@@H](NC(=O)[C@@H]2C[C@H]3C[C@H]3N2C(=O)Cn2nc(C(C)=O)c3ccccc32)C1` [Example 45, (1R,3S,5R)-2-[2-(3-Acetyl-indazol-1-yl)-acetyl]-2-aza-bicyclo[3.1.0]hexane-3-carboxylic acid ((1R,3S)-3-methoxy-cyclohexyl)-amide], the concentration for half-maximal inhibition (IC50) was determined as 405 nM.

`C[C@H]1CCC[C@@H](NC(=O)[C@@H]2C[C@H]3C[C@H]3N2C(=O)Cn2nc(C(N)=O)c3ccccc32)C1` [Example 47, 1-{2-[(1R,3S,5R)-3-((1R,3S)-3-Methyl-cyclohexylcarbamoyl)-2-aza-bicyclo[3.1.0]hex-2-yl]-2-oxo-ethyl}-1H-indazole-3-carboxylic acid amide]: the 50% inhibitory concentration (IC50) was determined as 91 nM. On to `C[C@@H]1CCC[C@H](NC(=O)[C@@H]2C[C@H]3C[C@H]3N2C(=O)Cn2nc(C(N)=O)c3ccccc32)C1` [Example 48, 1-{2-[(1R,3S,5R)-3-((1S,3R)-3-Methyl-cyclohexylcarbamoyl)-2-aza-bicyclo[3.1.0]hex-2-yl]-2-oxo-ethyl}-1H-indazole-3-carboxylic acid amide], for which the IC50 amounted to 1320 nM. Regarding `Cc1nccc2c(C(N)=O)nn(CC(=O)N3[C@@H]4C[C@@H]4C[C@H]3C(=O)N[C@@H]3CCCC(C)(C)C3)c12` [Example 65, 1-{2-[(1R,3S,5R)-3-((R)-3,3-Dimethyl-cyclohexylcarbamoyl)-2-aza-bicyclo[3.1.0]hex-2-yl]-2-oxo-ethyl}-7-methyl-1H-pyrazolo[3,4-c]pyridine-3-carboxylic acid amide], the IC50 came out at 38 nM. Consider `CC1(C)CCC[C@H](NC(=O)[C@@H]2C[C@@H](F)CN2C(=O)Cn2nc(C(N)=O)c3ccncc32)C1` [Example 70, 1-{2-[(2S,4R)-2-((S)-3,3-Dimethyl-cyclohexylcarbamoyl)-4-fluoro-pyrrolidin-1-yl]-2-oxo-ethyl}-1H-pyrazolo[3,4-c]pyridine-3-carboxylic acid amide], for which the IC50 came to 2090 nM.
